pIC50: −log10 of the molar value. Read-outs that look alike come from different tables or passages of the source.
Test system: LNCaP/AR cells
Test: Inhibition of the proliferation of LNCap/AR cells (CCK-8)
Assay type: cell-based
Settings: read-out: LNCap/AR IC50
Text: 1. Biological Assay of the Inhibition on the Proliferation of LNCap/AR Cells
(1) Experimental materials and instruments: LNCaP/AR cell line and 22RV1 cell line (provided by Sichuan Kangcheng Biotechnology Co., Ltd.) Fetal bovine serum FBS (Gibco, Cat. No. 10099-141) 0.01M PBS (Biosharp, Cat. No. 162262) RIPM1640 medium (Hyclone, Cat. No. 308090.01) Penicillin-Streptomycin (Hyclone, Cat. No. SV30010) Cell counting kit-8 (Signalway Antibody, Cat. No. CP002) DMSO (Sigma, Cat. No. D5879) Centrifuge Tube, 15 ml (Excell Bio, Cat. No. CS015-0001) Cell Culture Dish, (Excell Bio, Cat. No. CS016-0128) 96-well cell culture plate (Corning, Cat. No. 3599) Microplate reader (Thermo Multiskan MK3 type)
(2) Experimental Methods:
a. Preparation of Buffer Cell culture medium: RIPM1640 medium, 10% FBS, 1% Pen Strep: PBS buffer: PBS powder was dissolved in 2 L of ultrapure water and sterilized. b. Experimental Procedures 1) LNCaP/AR cells were subcultured in cell culture media, and then the cells in good growth condition were seeded in a 96-well plate at 80 μL/well (1000 cells/well), and cultured overnight in a 37° C., 5% CO2 cell incubator. 2) The drug was prepared into a 10 mM stock solution with dimethyl sulfoxide (DMSO). Prior to use, the stock solution was diluted in a ratio of […] with DMSO, and then diluted at a 3-fold gradient to obtain 9 serial concentrations. Then, each concentration of compound was further diluted in a ratio of 1:200 with the culture medium (to ensure that the DMSO concentration in the culture system was 0.1%), and two wells were set for each concentration. 20 μL of the diluted compound solution was added to the well of the cell culture (with a final concentration of 10 μM, 3.3 μM, 1.1 μM . . . ), and then the plate was gently tapped to thoroughly mix. In addition, the experiment included 3 negative control wells only containing cells and 3 blank control wells only containing culture medium (6 wells were each added with DMSO diluted in a ratio of 1:200 with 20 μL of culture medium). c. Result Detection: 1) After culturing for 6 days, 10 μL of CCK-8 was added to each well, and the plate was further incubated for 1 h in a 37° C., 5% CO2 cell incubator. 2) The absorbance (OD value) was measured at 450 nm with a multifunctional microplate reader. 3) The data was analyzed by the Dose-response-inhibition equation in the software GraphPad Prism5, and the IC50 value was obtained. 2. Biological assay of the inhibition on the proliferation of other drug-resistant prostate cancer cells

[1] = 144 h, LNCaP/AR cells, 6 days culture, CCK-8

| SMILES | pIC50 [1] | other results |
| --- | --- | --- |
| Cc1ccc(-c2c(C)noc2C)cc1N(CCCCCNc1ccc2c(c1)CN(C1CCC(=O)NC1=O)C2=O)c1ccc(-c2c(C)noc2C)cc1 (stereo not drawn) [Compound 33, 3-(5-((5-((5-(3,5-Dimethylisoxazol-4-yl)-2-methylphenyl) (4-(3,5-dimethylisoxazol-4-yl)phenyl)amino)pentyl)amino)-1-oxoisoindolin-2-yl)piperidine-2,6-dione] | 6.30 to 7.00 | – |
| CCN(c1ccc(C#N)c(Cl)c1)c1cc(-c2c(C)nn(CCCCCOCC(=O)N[C@H](C(=O)N3C[C@H](OC(C)=O)C[C@H]3C(=O)N[C@@H](C)c3ccc(-c4scnc4C)cc3)C(C)(C)C)c2C)ccc1C [Compound 81, (3R,5S)-1-((S)-2-(2-((5-(4-(3-((3-chloro-4-cyanophenyl)(ethyl)amino)-4-methylphenyl)-3,5-dimethyl-1H-pyrazol-1-yl)pentyl)oxy)acetamido)-3,3-dimethylbutyryl)-5-((S)-1-(4-methylthiazol-5-yl)phenyl)ethyl)carbamoyl)pyrrolidine-3-yl acetate] | – | pIC50 (LNCaP/AR, 144 h): 5.70 to 6.30 |
| CCCCCCCCC(CCCCCCCOCC(=O)N[C@H](C(=O)N1C[C@H](OC(C)=O)C[C@H]1C(=O)N[C@@H](C)c1ccc(-c2scnc2C)cc1)C(C)(C)C)N(c1ccc(-n2ccnc2)cc1)c1cc(-c2c(C)noc2C)ccc1C (stereo partly drawn) [Compound 88, (3R,5S)-1-((S)-2-(2-((8-((4-(1H-imidazol-1-yl)phenyl)(5-(3,5-dimethylisoxazol-4-yl)-2-methylphenyl)amino)cetyl)oxy)acetylamino)-3,3-dimethylbutyryl)-5-(((S)-1-(4-(4-methylthiazol-5-yl)phenyl)ethyl)carbamoyl)pyrrolidine-3-yl acetate] | 5.70 to 6.30 | – |
| CC(=O)O[C@@H]1C[C@@H](C(=O)N[C@@H](C)c2ccc(-c3scnc3C)cc2)N(C(=O)[C@@H](NC(=O)COCCCCN(c2ccc(-n3ccnc3)cc2)c2cc(-c3c(C)noc3C)ccc2C)C(C)(C)C)C1 [Compound 86, (3R,5S)-1-((S)-2-(2-(4-((4-(1H-imidazol-1-yl)phenyl)(5-(3,5-dimethylisoxazol-4-yl)-2-methylphenyl)amino)butoxy)acetamido)-3,3-dimethylbutyryl)-5-((S)-1-(4-(4-methylthiazol-5-yl)phenyl)ethyl)carbamoyl)pyrrolidine-3-yl acetate] | 6.30 to 7.00 | – |
| Cc1ccc(-c2c(C)noc2C)cc1N(CCCCCCOCC(=O)N[C@H](C(=O)N1C[C@H](O)C[C@H]1C(=O)N[C@@H](C)c1ccc(-c2scnc2C)cc1)C(C)(C)C)c1ccc(-n2ccnc2)cc1 [Compound 6, (2S,4R)-1-((S)-2-(2-((6-((4-(1H-imidazol-1-yl)phenyl)(5-(3,5-Dimethylisoxazol-4-yl)-2-methylphenyl)amino)n-hexyl)oxy)acetylamino)-3,3-dimethylbutyryl)-4-hydroxy-N—((S)-1-(4-(4-methylthiazol-5-yl)phenyl)ethyl)pyrrolidinyl-2-formamide] | 5.70 to 6.30 | – |
| CC(=O)O[C@@H]1C[C@@H](C(=O)N[C@@H](C)c2ccc(-c3scnc3C)cc2)N(C(=O)[C@@H](NC(=O)COC2CN(CCN(c3ccc(-n4ccnc4)c(Br)c3)c3cc(-c4c(C)noc4C)ccc3C)C2)C(C)(C)C)C1 [Compound 101, (3R,5S)-1-((S)-2-(2-((1-(2-((3-Bromo-4-(1H-imidazol-1-yl)phenyl)(5-(3,5-dimethylisozazol-4-yl)-2-methylphenyl)amino)ethyl)azetidin-3-yl)oxy)acetylamino)-3,3-dimethylbutyryl)-5-(((S)-1-(4-(4-methylthiazol-5-yl)phenyl)ethyl)carbamoyl)pyrrolidine-3-yl acetate] | < 5.70 | – |
| Cc1ccc(-c2c(C)noc2C)cc1N(CCCCCOCC(=O)N[C@H](C(=O)N1C[C@H](O)C[C@H]1C(=O)N[C@@H](C)c1ccc(-c2scnc2C)cc1)C(C)(C)C)c1ccc(-n2ccnn2)cc1 [Compound 89, (2S,4R)-1-((S)-2-(2-((5-((4-(1H-1,2,3-triazol-1-yl)phenyl)(5-(3,5-dimethylisoxazol-4-yl)-2-methylphenyl)amino)pentyl)oxy)acetylamino)-3,3-dimethylbutyryl)-4-hydroxy-N—((S)-1-(4-(4-methylthiazol-5-yl)phenyl)ethyl)-pyrrolidinyl-2-formamide] | > 7.00 | – |
| Cc1ccc(-c2c(C)noc2C)cc1N(CCCCCOCC(=O)N[C@H](C(=O)N1C[C@H](O)C[C@H]1C(=O)N[C@@H](C)c1ccc(-c2scnc2C)cc1)C(C)(C)C)c1ccc(-n2ccnc2C)cc1 [Compound 97, (2S,4R)-1-((S)-2-(2-((5-((5-(3,5-dimethylisoxazol-4-yl)-2-methylphenyl)(4-(2-methyl-1H-imidazol-1-yl)phenyl)amino)pentyl)oxy)acetylamino)-3,3-dimethylbutyryl)-4-hydroxy-N—((S)-1-(4-(4-methylthiazol-5-yl)phenyl)ethyl)-pyrrolidinyl-2-formamide] | 6.30 to 7.00 | – |
| CC(=O)O[C@@H]1C[C@@H](C(=O)N[C@@H](C)c2ccc(-c3scnc3C)cc2)N(C(=O)[C@@H](NC(=O)COCCCCCN(c2ccc(-n3cnc(C)c3)c(Br)c2)c2cc(-c3c(C)noc3C)ccc2C)C(C)(C)C)C1 [Compound 52, (3R,5S)-1-((S)-2-(2-((5-((3-bromo-4-(4-methy-1H-imidazol-1-yl)phenyl)(5-(3,5-dimethylisoxazol-4-yl)-2-methylphenyl)amino)pentyl)oxy)acetamido)-3,3-dimethylbutyryl)-5-((S)-1-(4-methylthiazol-5-yl)phenyl)ethyl)carbamoyl)pyrrolidine-3-yl acetate] | – | pIC50 (LNCaP/AR cells, 6 days culture, CCK-8): 6.30 to 7.00 |
| CC(=O)O[C@@H]1C[C@@H](C(=O)N[C@@H](C)c2ccc(-c3scnc3C)cc2)N(C(=O)[C@@H](NC(=O)COCCCCCN(c2ccc(-n3ccnn3)c(Br)c2)c2cc(-c3c(C)noc3C)ccc2C)C(C)(C)C)C1 [Compound 20, (3R,5S)-1-((S)-2-(2-((5-((3-bromo-4-(1H-1,2,3-triazol-1-yl)phenyl)(5-(3,5-dimethylisoxazol-4-yl)-2-methylphenyl)amino)pentyl)oxy)acetamido)-3,3-dimethylbutyryl)-5-((S)-1-(4-methylthiazol-5-yl)phenyl)ethyl)carbamoyl)pyrrolidine-3-yl acetate] | > 7.00 | – |
| Cc1ccc(-c2c(C)noc2C)cc1N(CCCCCOCC(=O)N[C@H](C(=O)N1C[C@H](O)C[C@H]1C(=O)N[C@@H](C)c1ccc(-c2scnc2C)cc1)C(C)(C)C)c1ccc(-n2cnnc2)cc1 [Compound 93, (2S,4R)-1-((S)-2-(2-((5-((4-(1H-1,3,4-triazol-1-yl)phenyl)(5-(3,5-dimethylisoxazol-4-yl)-2-methylphenyl)amino)pentyl)oxy)acetylamino)-3,3-dimethylbutyryl)-4-hydroxy-N—((S)-1-(4-(4-methylthiazol-5-yl)phenyl)ethyl)-pyrrolidinyl-2-formamide] | 6.30 to 7.00 | – |
| Cc1ccc(-c2c(C)noc2C)cc1N(CCCCCOCC(=O)N[C@H](C(=O)N1C[C@H](O)C[C@H]1C(=O)N[C@@H](C)c1ccc(-c2scnc2C)cc1)C(C)(C)C)c1ccc(C#N)c(Cl)c1 [Compound 58] | – | pIC50 (LNCaP/AR, 144 h): 6.30 to 7.00 |
| Cc1ccc(-c2c(C)noc2C)cc1N(CCC1CCN(c2cc3c(cc2F)C(=O)N(C2CCC(=O)NC2=O)C3=O)CC1)c1ccc(C2(C#N)CC2)cc1 (stereo not drawn) [Compound 29, 1-(4-((5-(3,5-Dimethylisoxazol-4-yl)-2-methylphenyl)(2-(1-(2-(2,6-dioxopiperidin-3-yl)-6-fluoro-1,3-dioxoisoindolin-5-yl)piperidin-4-yl)ethyl)amino)phenyl)cyclopropane-1-carbonitrile] | < 5.70 | – |
| CC(=O)O[C@@H]1C[C@@H](C(=O)N[C@@H](C)c2ccc(-c3scnc3C)cc2)N(C(=O)[C@@H](NC(=O)COCCCCCN(c2ccc(-n3ccnc3)c(F)c2)c2cc(-c3c(C)noc3C)ccc2C)C(C)(C)C)C1 [Compound 13, (3R,5S)-1-((S)-2-(2-((5-((3-fluoro-4-(1H-imidazol-1-yl)phenyl)(5-(3,5-dimethylisoxazol-4-yl)-2-methylphenyl)amino)n-pentyl)oxy)acetylamino)-3,3-dimethylbutyryl)-5-(((S)-1-(4-(4-methylthiazol-5-yl)phenyl)ethyl)formylamino)pyrrolidinyl-3-acetate] | – | pIC50 (LNCaP/AR, 144 h): < 5.70 |
| CC(=O)O[C@@H]1C[C@@H](C(=O)N[C@@H](C)c2ccc(-c3scnc3C)cc2)N(C(=O)[C@@H](NC(=O)COCCCCCN(c2ccc(F)c(-n3ccnc3)c2)c2cc(-c3c(C)noc3C)ccc2C)C(C)(C)C)C1 [Compound 15] | – | pIC50 (LNCaP/AR, 144 h): < 5.70 |
